Assay results reported in patent publication US20030229108A1, “Barbituric acid analogs as therapeutic agents” (priority 2000, published 2003).

Assays:
VEGF = assay: VEGF-ELISA (Quantikine sandwich immunoassay of VEGF in cell supernatant); type: cell-based; conditions: Homo sapiens, 17 h; read-out: Secondary Assay VEGF-ELISA IC50
Protocol: This assay employs the quantitative sandwich enzyme immunoassay technique. A monoclonal antibody (R&D Systems®, Abingdon, Oxon, UK) specific for VEGF was pre-coated onto a microplate. To this was added a sample containing VEGF. After washing, a second anti-VEGF antibody coupled to horseradish peroxidase was added. […] Typically, cells were plated at a concentration of 2.5×10^4 cells/well, and incubated with either 100 μM desferroxamine or at 0.1% O2 for 17 hours at 37° C. 200 μL of supernatant were removed and the VEGF quantitated using the Quantikine® ELISA kit from R&D Systems® (catalog # DVEOO) exactly according to the manufacturer's instructions. The assay is calibrated each time using recombinant human VEGF.

[1] = test system: VEGF promoter (VEGF-luciferase reporter) in Hepatoma 3B (hep3B) cells; assay: VEGF-luciferase cell-based reporter assay, desferoxamine-induced, Hepatoma 3B (hep3B) cells; conditions: 15 h, read-out: Secondary Assay VEGF-luciferase IC50
Source text: This cell-based reporter assay involves the use of a luciferase reporter gene under the direct control of the VEGF promoter. Induction of HIF using desferoxamine leads to the transcription of luciferase through activation of the VEGF (Vascular Endothelial Growth Factor) promoter, which in turn leads to an increase in luciferase activity, which can be measured using most commercially available luciferase assay kits. Molecules that disrupt the HIF complex cause inhibition of HIF-dependent luciferase activation and lead to a reduction in luciferase activity. This assay allows the activity of the compounds to be assessed against the VEGF promoter, which is essential for VEGF production and subsequent angiogenesis.
Hepatoma 3B (hep3B) cells (ATCC Ref. No. HB-8064) were plated in 24-well plates at 2×10^4/well in 500 μL DMEM/10% FCS, and were transfected the following day using Fugene 6 (Roche Biochemicals®, Lewes, E. Sussex, UK). Transfection mixtures per well contained 6 μL 10% Fugene, 200 ng VEGF-luciferase reporter (rat VEGF promoter, NCBI GenBank, accession number U22373, Levy et al., 1995) and 2 ng TK-renilla (Promega®, Madison, Wis., USA) (for transfection efficiency control). Transfection was performed as recommended by manufacturer. Compounds were added the following day. After 1 hour incubation at 37° C., desferoxamine (Sigma®, Dorset, UK) was added at 100 μM to induce HIF activity. Duplicate wells without desferoxamine were run in parallel. Cells were harvested 15 hours later, and luciferase activity was measured using Dual Luciferase Assay System (Promega®, see also Technical Manual, Part #TM040, Instructions for Use of Products E1910 and E1960, revised May/1999).

[2] = target: T1, interaction between HIF-1α and p300 (His-HIF-1α / GST-p300) (Homo sapiens, UniProt Q09472+Q16665); assay: Primary assay: fluorescence-based (DELFIA) screening assay for inhibition of the HIF-1α/p300 interaction; type: binding
T1 construct: corresponding to the C-terminal 390 amino acids into vector pET28a; A plasmid containing the N-terminal 595 amino acids of human p300; made in house; host or cells: E. coli
Protocol: Candidate compounds were assessed for their ability to inhibit the interaction between HIF-1α and p300 using a high throughput fluorescence-based screening assay (DELFIA) as follows.
A plasmid expressing His-HIF-1α fusion protein was constructed by PCR, by amplifying and subcloning a fragment of the human HIF-1α cDNA (NCBI GenBank, accession number AH006957) corresponding to the C-terminal 390 amino acids into vector pET28a (Novagen®, Madison, Wis., USA). A plasmid containing the N-terminal 595 amino acids of human p300 (NCBI GenBank, accession number U01877) inserted into vector pGEX2T (Pharmacia®, Little Chalfont, Bucks, UK) was used for the production of GST-p300 fusion protein. The recombinant proteins were produced in E. coli. His-HIF-1α was purified using Ni-NTA agarose beads, according to manufacture's method (Qiagen®, Crawley, West Sussex, UK). GST-p300 was purified using Glutathione-sepharose beads (Amersham Pharmacia®, Little Chalfont, Bucks, UK) according to manufacturer's instructions. A titration of every batch of p300 was carried out in order to determine the optimum dilution of the protein to obtain at least a 10:1 ratio signal to noise in the binding assay.
The assay was performed in 96-well Polysorb plates (Nalge Nunc International®, Rochester, N.Y., USA) as follows. Plates were coated with His-HIF-1α at 50 ng/well in […] and incubated overnight at 4° C. The plates were then washed 3 times with deionized water and blocked with 100 μL/well 3% BSA in PBS for 3 hours at 4° C. After washing 3 times as before, GST-p300 was added at the appropriate dilution (1:800 in this screening) in binding buffer (50 mM HEPES pH 7.5, 50 mM NaCl, 0.1% BSA, 0.5 mM DTT). The reaction was incubated at room temperature for 1 hour. Plates were washed 3 times and anti-GST Europium-conjugated antibody (from Wallac®, Turku, Finland) was added at 50 ng/well in […]. After 45 minutes incubation, plates were washed 3 times as before. Then, 100 μL/well enhancement solution (from Wallac®, Catalog No. 1244-105) was added and allowed to react for 15 minutes at room temperature. Plates were read on a Victor 2 plate reader (from Wallac®).

T1 sequence (Q16665 437-826 limits assumed): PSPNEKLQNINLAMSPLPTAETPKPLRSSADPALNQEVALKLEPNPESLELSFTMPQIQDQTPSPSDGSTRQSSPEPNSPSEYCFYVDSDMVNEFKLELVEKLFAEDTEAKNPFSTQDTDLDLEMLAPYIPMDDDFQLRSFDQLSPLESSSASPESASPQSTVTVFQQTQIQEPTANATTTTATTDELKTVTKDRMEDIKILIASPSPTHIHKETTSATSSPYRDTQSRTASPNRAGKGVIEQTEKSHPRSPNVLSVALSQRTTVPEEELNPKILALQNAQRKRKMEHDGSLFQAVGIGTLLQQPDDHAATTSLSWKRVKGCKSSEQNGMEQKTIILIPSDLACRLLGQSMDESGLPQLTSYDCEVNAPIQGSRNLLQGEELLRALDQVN
T1 sequence (Q09472 1-595 limits assumed): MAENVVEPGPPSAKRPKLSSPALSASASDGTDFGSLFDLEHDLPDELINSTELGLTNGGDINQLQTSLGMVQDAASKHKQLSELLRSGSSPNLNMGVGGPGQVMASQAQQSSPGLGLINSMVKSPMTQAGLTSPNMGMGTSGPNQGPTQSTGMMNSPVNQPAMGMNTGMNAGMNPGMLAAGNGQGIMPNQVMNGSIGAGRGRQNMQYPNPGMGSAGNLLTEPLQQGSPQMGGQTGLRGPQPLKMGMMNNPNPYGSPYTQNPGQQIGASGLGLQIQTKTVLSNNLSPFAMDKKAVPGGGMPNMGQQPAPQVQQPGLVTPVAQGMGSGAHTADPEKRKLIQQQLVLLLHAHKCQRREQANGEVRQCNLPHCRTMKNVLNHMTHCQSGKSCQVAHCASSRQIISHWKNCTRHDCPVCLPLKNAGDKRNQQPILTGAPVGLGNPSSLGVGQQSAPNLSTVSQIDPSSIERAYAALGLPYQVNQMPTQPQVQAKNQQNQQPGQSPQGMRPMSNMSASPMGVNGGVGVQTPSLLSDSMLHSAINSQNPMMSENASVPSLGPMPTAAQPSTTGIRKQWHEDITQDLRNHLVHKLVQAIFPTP

In the case of `O=C1NC(=S)NC(=O)C1=Cc1ccc(Oc2ccccc2)cc1` [PX106021, 5-(4-Phenoxy-benzylidene)-2-thioxo-dihydro-pyrimidine-4,6-dione], the IC50 (VEGF) is reported as 80 µM and the IC50 [1] is reported as 100 µM.
In the case of `O=C1NC(=S)NC(=O)C1=Cc1cn(Cc2ccccc2)c2ccccc12` [PX106341], the IC50 (VEGF) is reported as 20 µM, the IC50 [2] is reported as 49 µM and the IC50 [1] is reported as 57.5 µM.
In the case of `CCN1C(=O)/C(=C/C=C/c2ccco2)C(=O)NC1=S` [PX106281], the IC50 (VEGF) is reported as 30 µM, the IC50 [2] is reported as 35 µM and the IC50 [1] is reported as 28 µM.
With `O=C1NC(=S)NC(=O)C1=Cc1c[nH]c2ccccc12` [PX075276, 5-(1H-Indol-3-ylmethylene)-2-thioxo-dihydro-pyrimidine-4,6-dione] the IC50 (VEGF) was 18.8 µM, the IC50 [2] was 30 µM and the IC50 [1] was 10.8 µM.
Work on `O=C1NC(=O)C(=Cc2ccc([N+](=O)[O-])s2)C(=O)N1` [PX074037] yielded an IC50 (VEGF) of 30 µM, an IC50 [2] of 100 µM and an IC50 [1] of 35 µM.
With `Cc1cc(C)cc(-n2c(C)cc(C=C3C(=O)NC(=S)NC3=O)c2C)c1` [PX106155] the IC50 (VEGF) was 45 µM, the IC50 [2] was 10 µM and the IC50 [1] was 27.5 µM.
In the case of `O=C1NC(=S)NC(=O)C1=Cc1cccc2ccccc12` [PX089635, 5-(Naphthalen-1-ylmethylene)-2-thioxo-dihydro-pyrimidine-4,6-dione], the IC50 [2] is reported as 80 µM and the melting point is reported as 280 °C (dec.).
With `O=C1C(=Cc2ccc(Cl)cc2)C(=O)N(c2ccccc2)C(=S)N1c1ccccc1` [PX089645, 5-(4-Chloro-benzylidene)-1,3-diphenyl-2-thioxo-dihydro-pyrimidine-4,6-dione] the IC50 (VEGF) was 200 µM and the IC50 [2] was 80 µM.
For `Cc1cc(C=C2C(=O)NC(=S)NC2=O)c(C)n1-c1ccccc1` [PX106151], the IC50 (VEGF) was 75 µM, the IC50 [2] was 160 µM and the IC50 [1] was 40 µM.
With `O=C1NC(=S)NC(=O)C1=Cc1cc(Br)cs1` [PX089648, 5-(4-Bromo-thiophen-2-ylmethylene)-2-thioxo-dihydro-pyrimidine-4,6-dione] the IC50 (VEGF) was 32.5 µM, the IC50 [2] was 45 µM and the melting point was 230 °C (dec.). It also gave an IC50 [1] of 30 µM.
For `Cc1cc(C)c(C=C2C(=O)NC(=S)NC2=O)[nH]1` [PX089624], the IC50 (VEGF) was 6.2 µM, the IC50 [2] was 45 µM and the IC50 [1] was 12.5 µM.
Work on `CCN(CC)c1ccc(C=C2C(=O)NC(=O)NC2=O)cc1` [P2083675] yielded an IC50 (VEGF) of 75 µM, an IC50 [2] of 35 µM and an IC50 [1] of 50 µM.
Work on `CN(CCC#N)c1ccc(C=C2C(=O)NC(=S)NC2=O)cc1` [PX089643] yielded an IC50 (VEGF) of 100 µM, an IC50 [2] of 55 µM and an IC50 [1] of 87.5 µM.
In the case of `O=C1NC(=S)NC(=O)C1=Cc1ccc(-c2cc(C(F)(F)F)cc(C(F)(F)F)c2)o1` [PX075367], the IC50 (VEGF) is reported as 75 µM, the IC50 [2] is reported as 45 µM and the IC50 [1] is reported as 50 µM.
In the case of `O=C1NC(=S)NC(=O)C1=Cc1ccc[nH]1` [PX089639, 5-(1H-pyrrol-2-ylmethylene)-2-thioxo-dihydro-pyrimidine-4,6-dione], the IC50 (VEGF) is reported as 50 µM, the IC50 [2] is reported as 20 µM and the melting point is reported as 280 °C (dec.). The IC50 [1] was 25 µM.
In the case of `CN(C)c1ccc(C=C2C(=O)NC(=S)NC2=O)cc1` [PX089631, 5-(4-dimethylamino-benzylidene)-2-thioxo-dihydro-pyrimidine-4,6-dione], the IC50 (VEGF) is reported as 27.5 µM, the IC50 [2] is reported as 25 µM and the IC50 [1] is reported as 16.3 µM.
In the case of `O=C1NC(=S)NC(=O)C1=Cc1ccc([N+](=O)[O-])s1` [PX074038, 5-(5-Nitro-thiophen-2-ylmethylene)-2-thioxo-dihydro-pyrimidine-4,6-dione], the IC50 [2] is reported as 20 µM, the melting point is reported as 285 °C (dec.) and the IC50 [1] is reported as 50 µM.
